Assay results taken from patent EP0039646A1, “1,4-Benzodioxines, processes for their preparation and their use in therapy” (RIOM LABORATOIRES- C.E.R.M. (Société Anonyme), priority 1980, dated 1981).

Columns and labels:
récepteurs β1 = molecular target: T1, récepteurs β1 (Cavia porcellus, UniProt H0W3H1); assay: Antagonism of the positive inotropic effect of isoprenaline on electrically stimulated guinea pig left atrium; set-up: species or system cobaye
T1 construct: sur les récepteurs β1 de l'oreillette gauche de cobaye stimulée électriquement; from tissue; host or cells: isolated guinea pig left atrium, electrically stimulated
Text: (§1) L'activité pharmacologique des composés de l'invention a été révélée par recherche d'une interférence avec les récepteurs adrénergiques β1, β2 et α in vitro, et confirmée in vivo par les effets antihypertenseurs observés après administration desdits composés chez le rat spontanément hypertendu anesthésié.
(§2) Les essais effectués in vitro correspondent aux protocoles résumés ci-après : • - Récepteurs adrénergiques β1 : on recherche l'antagonisme de l'effet inotrope positif de l'isopré- naline sur les récepteurs β1 de l'oreillette gauche de cobaye stimulée électriquement. • - Récepteurs adrénergiques 6 2 : on recherche l'antagonisme des effets bronchodilatateurs de l'iso- prénaline sur les récepteurs β2 du muscle trachéal de cobaye. • - Récepteurs adrénergiques α : on étudie l'interférence des composés de l'invention sur la contraction du vas déferens isolé du rat, provoquée par des doses cumulatives de noradrénaline.
(§3) Les résultats exprimés par les paramètres usuels de pharmacologie moléculaire, selon les critères utilisés par Van Rossum [Arch. Int.

récepteurs β2 = molecular target: T2, récepteurs β2 (Cavia porcellus, UniProt Q8K4Z4); assay: Antagonism of the bronchodilator effects of isoprenaline on guinea pig tracheal muscle; set-up: species or system cobaye
T2 construct: sur les récepteurs β2 du muscle trachéal de cobaye; from tissue; host or cells: guinea pig tracheal muscle
Text: as §1, §2, §3

[1] = test system: Récepteurs adrénergiques α; assay: Interference with the contraction of isolated rat vas deferens caused by cumulative doses of noradrenaline
Text: as §1, §2, §3

[2] = test system: rat spontanément hypertendu anesthésié; assay: Antihypertensive effect in anaesthetised spontaneously hypertensive rats, carotid arterial pressure after i.v. injection; type: in vivo
Procedure: Les essais in vivo ont été effectués chez des rats mâles (S.H.R. - I.F.F.A.) conformément au protocole résumé ci-après :
Après anesthésie au pentobarbital, on a disposé un cathéter au niveau de l'artère carotide pour enregistrer la pression artérielle, et un cathéter au niveau d'une veine jugulaire pour permettre les injections des composés de l'invention mis en solution dans 0,5 ml de PEG 200 (polyéthylène glycol). La durée de l'injection était de 1 minute.

[3] = Acute oral toxicity in mice; conditions: mouse, in vivo, voie orale, souris, read-out: toxicité aiguë
Procedure: Ces résultats montrent en particulier le grand intérêt du composé n° 2 qui présente un antagonisme très sélectif du type dualiste vis-à-vis des récepteurs β adrénergiques et fait preuve d'une remarquable activité in vivo chez le rat spontanément hypertendu anesthésié. Il a d'autre part été possible d'évaluer à 120 mg.kg-^1 la toxicité aiguë du composé n° 2 par voie orale chez la souris.

T1 sequence (H0W3H1 1-470): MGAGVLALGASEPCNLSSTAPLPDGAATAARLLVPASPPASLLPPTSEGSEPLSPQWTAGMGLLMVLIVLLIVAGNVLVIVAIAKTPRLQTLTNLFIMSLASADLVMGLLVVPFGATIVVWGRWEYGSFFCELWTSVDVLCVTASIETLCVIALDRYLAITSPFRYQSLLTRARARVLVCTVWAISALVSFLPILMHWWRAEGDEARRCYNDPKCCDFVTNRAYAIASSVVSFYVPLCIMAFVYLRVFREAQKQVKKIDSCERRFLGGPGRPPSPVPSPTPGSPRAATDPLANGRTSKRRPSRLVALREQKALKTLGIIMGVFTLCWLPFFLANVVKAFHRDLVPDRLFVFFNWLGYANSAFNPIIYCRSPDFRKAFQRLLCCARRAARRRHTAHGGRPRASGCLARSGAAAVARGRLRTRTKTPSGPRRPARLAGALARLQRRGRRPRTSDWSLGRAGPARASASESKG
T2 sequence (Q8K4Z4 whole entry): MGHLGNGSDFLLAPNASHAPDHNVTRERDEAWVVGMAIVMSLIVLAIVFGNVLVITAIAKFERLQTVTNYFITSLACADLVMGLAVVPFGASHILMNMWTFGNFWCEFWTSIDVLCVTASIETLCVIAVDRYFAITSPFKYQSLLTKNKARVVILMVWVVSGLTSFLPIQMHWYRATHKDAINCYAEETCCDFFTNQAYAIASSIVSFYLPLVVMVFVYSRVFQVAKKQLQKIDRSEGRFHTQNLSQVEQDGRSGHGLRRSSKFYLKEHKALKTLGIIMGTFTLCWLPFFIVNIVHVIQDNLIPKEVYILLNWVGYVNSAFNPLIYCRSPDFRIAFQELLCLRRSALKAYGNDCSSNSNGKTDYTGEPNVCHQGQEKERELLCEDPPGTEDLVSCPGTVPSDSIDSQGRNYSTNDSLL

Compound	action sur les récepteurs β1 (récepteurs β1; 10^-4 M/1)	Récepteurs β2 (récepteurs β2)	Récepteurs α ([1]; noradrenaline)	durée de l'effet antihypertenseur ([2]; dose 20 mg.kg^-1, jugular vein injection in PEG 200, male SHR rats under pentobarbital)	pD'2 (récepteurs β1; Récepteurs β1, guinea pig left atrium, isoprenaline, Van Rossum criteria)	Kb (récepteurs β1; Récepteurs β1, guinea pig left atrium, isoprenaline, Van Rossum criteria, read-out: pA2 (converted))	potentialisation des effets de la noradrénaline ([1]; dose 10^-4 M/1)	durée de l'effet antihypertenseur ([2]; dose 2,5 mg.kg^-1, jugular vein injection in PEG 200, male SHR rats under pentobarbital)	LD50 [3]
OC(CN1CCN(c2cccc(C(F)(F)F)c2)CC1)C1=COc2ccccc2O1 (stereo not shown) [exemple 1, 2-méthanoloα-[4-(3-trifluoromethylphenyl)piperazinyl-1] methyl benzo (1,4) dioxine]	très faiblement compétitive	inactif	inactif	20 min	–	–	–	–	–
COc1ccccc1N1CCN(CC(O)C2=COc3ccccc3O2)CC1 (stereo not shown) [exemple 2, 2-méthanolα-[4-(2-methoxyphenyl)piperazinyl-1] methyl benzo (1,4) dioxine]	–	inactif	–	–	4,84	912 nM	180%	> 45 min	120 mg/kg
